Target: T1, recombinant human CDK1/Cyclin B complex (Homo sapiens, UniProt P06493)
T1 construct: made in house; host or cells: High Five insect cells (baculovirus) for CDK1/GST-cyclin B; M15 E. coli for the Rb substrate
Experiment: CDK1/Cyclin B kinase assay (FlashPlate or HTRF)
Format: biochemical
Details: Rb protein substrate, Ki=IC50/(1+[S]/Km)
Protocol: To determine inhibition of CDK1 activity, either FlashPlate™ (NEN™-Life Science Products) assay or HTRF assay was performed. Both types of kinase assays were carried out using recombinant human CDK1/Cyclin B complex. GST-cyclinB (GST-cycB) and CDK1 cDNA clones in baculovirus vectors were provided by Dr. W. Harper at the Baylor College of Medicine, Houston, Tex. Proteins were co-expressed in High Five™ insect cells and the complex was purified on glutathione Sepharose resin (Pharmacia, Piscataway, N.J.) as previously described (Harper, J. W. et al. Cell 1993, 75, 805-816). A 6×-Histidine tagged truncated form of retinoblastoma (Rb) protein (amino acid 386-928) was used as the substrate for the CDK1/Cyclin B assay (the expression plasmid was provided by Dr. Veronica Sullivan, Department of Molecular Virology, Roche Research Centre, Welwyn Garden City, United Kingdom). The Rb protein is a natural substrate for phosphorylation by CDK1 (see Herwig and Strauss Eur. J. Biochem. Vol. 246 (1997) pp. 581-601 and the references cited therein). The expression of the 62Kd protein was under the control of an IPTG inducible promoter in an M15 E. coli strain. Cells were lysed by sonication and purification was carried out by binding lysates at pH 8.0 to a Ni-chelated agarose column pretreated with 1 mM imidazole. The resin was then washed several times with incrementally decreasing pH buffers to pH 6.0, and eluted with 500 mM imidazole. Eluted protein was dialyzed against 20 mM HEPES pH 7.5, 30% glycerol, 200 mM NaCl, and 1 mM DTT. Purified Rb fusion protein stocks were quantitated for protein concentration, aliquoted, and stored at −70° C.
For the FlashPlate kinase assay, 96-well FlashPlates were coated with Rb protein at 10 μg/ml, using 100 μl per well. Plates were incubated at 4° C. overnight or at room temperature for 3 hours on a shaker. […] Plates were washed four times with the wash buffer, sealed, and counted on the TopCount scintillation counter (Packard Instrument Co., Downers Grove, Ill.]. The percent inhibition of Rb phosphorylation, which is a measure of the inhibition of CDK activity, was determined according to the following formula:
[formula] where “test compound” refers to the average counts per minute of the test duplicates, “nonspecific” refers to the average counts per minute when no CDK1/Cyclin B, etc., was added, and “total” refers to the average counts per minute when no compound was added. […] The value of the inhibitor constant Ki is calculated by the following: Ki=IC50/(1+[S]/Km), where [S] is the ATP concentration and Km is Michaelis constant.
The Homogeneous Time Resolved Fluorescence (HTRF) kinase assay was carried out in 96-well polypropylene plates (BD Biosciences, Bedford, Mass.). […]

T1 sequence (P06493 whole entry): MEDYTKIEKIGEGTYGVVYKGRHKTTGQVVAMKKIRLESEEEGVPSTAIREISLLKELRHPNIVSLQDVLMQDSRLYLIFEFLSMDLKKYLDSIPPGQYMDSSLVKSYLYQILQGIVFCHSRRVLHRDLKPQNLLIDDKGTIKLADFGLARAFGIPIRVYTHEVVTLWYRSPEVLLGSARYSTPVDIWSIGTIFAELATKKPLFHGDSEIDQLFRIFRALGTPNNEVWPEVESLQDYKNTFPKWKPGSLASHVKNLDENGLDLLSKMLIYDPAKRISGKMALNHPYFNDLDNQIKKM
T1 sequence (P14635 whole entry partner): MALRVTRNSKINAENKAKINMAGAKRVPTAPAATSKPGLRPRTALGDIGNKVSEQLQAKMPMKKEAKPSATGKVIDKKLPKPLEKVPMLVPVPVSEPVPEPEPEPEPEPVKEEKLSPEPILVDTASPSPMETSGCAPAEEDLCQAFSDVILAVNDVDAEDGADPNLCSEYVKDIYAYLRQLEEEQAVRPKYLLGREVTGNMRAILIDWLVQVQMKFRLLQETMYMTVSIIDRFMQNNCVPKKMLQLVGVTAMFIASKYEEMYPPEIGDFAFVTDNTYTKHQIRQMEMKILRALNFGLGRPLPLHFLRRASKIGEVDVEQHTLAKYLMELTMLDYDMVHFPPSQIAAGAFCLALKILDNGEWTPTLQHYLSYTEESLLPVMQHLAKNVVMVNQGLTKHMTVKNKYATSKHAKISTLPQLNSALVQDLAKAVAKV

SMILES	Ki
O=C1N=C(NCc2cccs2)S/C1=C\c1ccc2ncncc2c1 [Example 1, 5-[1-Quinazolin-6-yl-meth-(Z)-ylidene]-2-[(thiophen-2-ylmethyl)-amino]-thiazol-4-one]	1.22 µM
O=C1N=C(N[C@@H](CO)Cc2ccccc2)S/C1=C\c1ccc2ncncc2c1 [Example 7, 2-((R)-1-Hydroxymethyl-2-phenyl-ethylamino)-5-[1-quinazolin-6-yl-meth-(Z)-ylidene]-thiazol-4-one]	1.11 µM
O=C1N=C(NCCc2cccc(F)c2)S/C1=C\c1ccc2ncncc2c1 [Example 3, 2-[2-(3-Fluoro-phenyl)-ethylamino]-5-[1-quinazolin-6-yl-meth-(Z)-ylidene]-thiazol-4-one]	0.881 µM
COc1cc(F)ccc1NC1=NC(=O)/C(=C/c2ccc3ncncc3c2)S1 [Example 5, 2-(4-Fluoro-2-methoxy-phenylamino)-5-[1-quinazolin-6-yl-meth-(Z)-ylidene]-thiazol-4-one]	1.84 µM
